Reference: patent US12617818B2, “Compositions and methods for modulating myosin subfragment-2 coiled coil stability and methods for using them” (UNIVERSITY OF NORTH TEXAS, priority 2020, dated 2026)

Test system: rabbit skeletal muscle myofibrils
Test: Myofibrillar contractility assays (20 μL myofibril drop, 18 mM ATP added)
Type: biochemical
Settings: for % Contraction of imaged myofibril (FIG. 55, 56): after ATP; for IC50: read-out: IC-50 Value (50 percent of the reduction in percent contractility)
Description: Propionic acid, imidazole, and Mg(C2H3O2)2 were purchased from Sigma-Aldrich (St. Louis, MO). Boric Acid and KOH were purchased (EM Industries, Gibbstown, NJ). CaCl2) were purchased from Avantor (Center Valley, PA). We used myofibrils previously extracted and prepared from rabbit skeletal muscle as described by Duong and Reisler (1989). Afterwards, we stored the myofibril suspension with glycerol in a 1:1 ratio at −10° C.
We created a buffer solution with 2.2 mM Mg(C2H3O2)2, 10 mM imidazole, 130 mM propionic acid, 0.1 mM CaCl2) and titrated the solution with 10 M KOH until the pH reached 7. We decided to combine these chemicals and target a pH of 7 in order to simulate regular cell conditions for the myofibrils.
We began by extracting 50 mg of the myofibril suspension and adding 1 mL of our buffer into a 2 mL microcentrifuge tube. Next, we centrifuged the tube three times at 5000 RPM for 5 minutes on an IEC Micromax microcentrifuge, thereby isolating the denser myofibril from the lighter glycerol and unnecessary cellular constituents. After each centrifugation, we disposed of the supernatant and filled the microcentrifuge tube to 1 mL again with our buffer. Furthermore, we used a Fisher Vortex Genie 2™ to dislodge the pellet from the bottom of the microcentrifuge tube, making the next centrifugation effective. Following the series of centrifugations, we stored the myofibrils with the buffer in a 4° C. fridge to maintain their biological function. Every 2 days, we prepared new myofibrils with the method described above because previous batches of myofibril would be subject to rigor mortis: muscle death where myofibrils are indefinitely contracted.
A myofibrillar contractility assay tests the effect of certain chemical compounds on myofibril contraction. The assay involves the interaction of myofibrils with ATP, and we measured sarcomere length before and after the addition of ATP to determine percent contractility of myofibrils.
We created an apparatus for myofibrillar contractility assays by attaching a coverslip to a modified petri dish using electrical tape. Each coverslip used on the apparatus can run three assays total. We placed the apparatus on a ZEISS IM35™ inverted microscope equipped with a CANON POWERSHOT A510™ connected to one of the microscope's ocular lenses. Our apparatus allowed us to precisely adjust the field of view of the microscope, enabling efficient and quality imaging (FIG. 8).
To run an assay, we first placed a 20 μL drop of our prepared myofibrils onto the coverslip. Then, we added chemical modifiers (peptides and antibodies) to each droplet as needed and used a CARL ZEISS PLAN 40/0.65 160/0.17™ objective lens to focus on the myofibrils with the microscope. Since the antibodies have a much larger molecular mass than the peptides, we determined that the antibodies would also require a longer period of time to diffuse throughout the myofibril droplet. We allowed the antibodies a minimum of 5 minutes to diffuse into the myofibril solution while we gave peptide modifiers 30 seconds to settle into the solution.
These myofibrils would be likely to show evidence of contraction when they interacted with the ATP in the assay. We photographed the chosen myofibril before the addition of ATP. Then, we pipetted 2 μL of 18 mM ATP on the myofibril droplet, and we typically observed a visible contraction within 30 seconds. We needed to carefully watch the camera screen when adding the ATP because the addition of ATP solution onto the drop or the motion of the myofibril as it contracted would occasionally displace the myofibril. If the myofibril moved, we adjusted our field of view accordingly so that the myofibril was visible once again.
After the contraction concluded, we re-imaged the myofibril to compare the current sarcomere length with the initial sarcomere length. […]

Row | Compound | % Contraction (10 nM) | After (sarcomere length after ATP) (10 nM) | Before (sarcomere length before ATP) (10 nM) | % Contraction (40 nM) | After (sarcomere length after ATP) (40 nM) | Before (sarcomere length before ATP) (40 nM) | % Contraction of imaged myofibril (FIG. 55, 56) (40 nM) | % Contraction (80 nM) | After (sarcomere length after ATP) (80 nM) | Before (sarcomere length before ATP) (80 nM) | % Contraction (200 nM) | After (sarcomere length after ATP) (200 nM) | Before (sarcomere length before ATP) (200 nM) | IC50 | % Contraction (20 nM) | After (sarcomere length after ATP) (20 nM) | Before (sarcomere length before ATP) (20 nM) | induction of contraction compared to control group (high concentrations) | EC50 (read-out: EC-50 value (50 percent of the increase in percent contraction))
1 | C[C@H](NC(=O)[C@H](CCCCN)NC(=O)[C@H](Cc1ccccc1)NC(=O)[C@H](CCCCN)NC(=O)[C@H](CCCCN)NC(=O)[C@H](CCCCN)NC(=O)[C@H](CCCCN)NC(=O)[C@H](CCCCN)NC(=O)[C@H](CCCCN)NC(=O)[C@H](CCCCN)NC(=O)[C@@H](N)CCCCN)C(=O)N[C@@H](CCCCN)C(=O)N[C@@H](CCCCN)C(=O)N[C@@H](CCCCN)C(=O)N[C@@H](CCCCN)C(=O)N[C@@H](CCCCN)C(=O)N[C@@H](CCCCN)C(=O)O [Stabilizer] | 12 ± 2% | 1.9 μm | 2.1 μm | 10 ± 1% | 1.9 μm | 2.2 μm | 11% | 9 ± 2% | 2.0 μm | 2.2 μm | 8 ± 1% | 2.0 μm | 2.2 μm | 68 ± 27 nM |  |  |  |  | 
2 | CSCC[C@H](NC(=O)[C@H](CCC(=O)O)NC(=O)[C@H](CCCNC(=N)N)NC(=O)[C@H](CCC(=O)O)NC(=O)[C@H](CC(=O)O)NC(=O)[C@H](CCC(=O)O)NC(=O)[C@H](CC(C)C)NC(=O)[C@H](CCCNC(=N)N)NC(=O)[C@H](CCC(=O)O)NC(=O)[C@H](CC(N)=O)NC(=O)[C@H](CCSC)NC(=O)[C@@H](N)CCC(=O)O)C(=O)N[C@@H](CCCCN)C(=O)N[C@@H](C)C(=O)N[C@@H](CCC(=O)O)C(=O)N[C@@H](CC(C)C)C(=O)N[C@H](C(=O)N[C@@H](C)C(=O)N[C@@H](CCCCN)C(=O)O)[C@@H](C)O [Destabilizer] |  |  |  | 25 ± 8% | 1.7 μm | 2.2 μm | 30% | 32 ± 4% | 1.5 μm | 2.3 μm | 35 ± 7% | 1.5 μm | 2.3 μm | 12 ± 6 nM | 21 ± 3% | 1.7 μm | 2.2 μm | more than two-fold | 8 ± 4 nM
